{"source": "PubChem BioAssay (NCI)", "experiment_in_all_cases": "NCI anticancer screen, dose series, 384-well format", "key": {"SF-268 CNS": {"system": "SF-268 CNS"}, "MOLT-4 leukemia": {"system": "MOLT-4 leukemia"}, "ACHN renal": {"system": "ACHN renal"}, "MDA-MB-231 breast": {"system": "MDA-MB-231 breast"}, "HT29 colon": {"system": "HT29 colon"}, "A549 NSCLC": {"system": "A549 NSCLC"}, "SK-MEL-28 melanoma": {"system": "SK-MEL-28 melanoma"}, "KM12 colon": {"system": "KM12 colon"}, "NCI-H522 lung": {"system": "NCI-H522 lung"}, "EKVX NSCLC": {"system": "EKVX NSCLC"}, "TK-10 renal": {"system": "TK-10 renal"}, "COLO 205 colon": {"system": "COLO 205 colon"}, "SN12C renal": {"system": "SN12C renal"}}, "note": "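At the GI50, growth is halved. TGI marks complete inhibition of growth.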"}
{"smiles": "COCCOc1cnc2ccn([C@H](C)c3nnc4c(F)cc(-c5cnn(C)c5)cn34)c(=O)c2c1", "values": [{"measurement": "GI50", "setting": "SF-268 CNS", "value": "> 100", "unit": "µM"}, {"measurement": "TGI", "setting": "SF-268 CNS", "value": "> 100", "unit": "µM"}, {"measurement": "GI50", "setting": "MOLT-4 leukemia", "value": "> 94", "unit": "µM"}, {"measurement": "TGI", "setting": "MOLT-4 leukemia", "value": "> 100", "unit": "µM"}, {"measurement": "GI50", "setting": "ACHN renal", "value": "> 100", "unit": "µM"}, {"measurement": "TGI", "setting": "ACHN renal", "value": "> 100", "unit": "µM"}, {"measurement": "GI50", "setting": "MDA-MB-231 breast", "value": "> 100", "unit": "µM"}, {"measurement": "TGI", "setting": "MDA-MB-231 breast", "value": "> 100", "unit": "µM"}, {"measurement": "GI50", "setting": "HT29 colon", "value": "> 100", "unit": "µM"}, {"measurement": "TGI", "setting": "HT29 colon", "value": "> 100", "unit": "µM"}, {"measurement": "GI50", "setting": "A549 NSCLC", "value": "> 100", "unit": "µM"}, {"measurement": "TGI", "setting": "A549 NSCLC", "value": "> 100", "unit": "µM"}, {"measurement": "GI50", "setting": "SK-MEL-28 melanoma", "value": "> 100", "unit": "µM"}, {"measurement": "TGI", "setting": "SK-MEL-28 melanoma", "value": "> 100", "unit": "µM"}, {"measurement": "GI50", "setting": "KM12 colon", "value": 24.5, "unit": "µM"}, {"measurement": "TGI", "setting": "KM12 colon", "value": "> 100", "unit": "µM"}, {"measurement": "GI50", "setting": "NCI-H522 lung", "value": "> 100", "unit": "µM"}, {"measurement": "TGI", "setting": "NCI-H522 lung", "value": "> 100", "unit": "µM"}, {"measurement": "GI50", "setting": "EKVX NSCLC", "value": "> 100", "unit": "µM"}, {"measurement": "TGI", "setting": "EKVX NSCLC", "value": "> 100", "unit": "µM"}, {"measurement": "GI50", "setting": "TK-10 renal", "value": "> 100", "unit": "µM"}, {"measurement": "TGI", "setting": "TK-10 renal", "value": "> 100", "unit": "µM"}, {"measurement": "GI50", "setting": "COLO 205 colon", "value": "> 100", "unit": "µM"}, {"measurement": "TGI", "setting": "COLO 205 colon", "value": "> 100", "unit": "µM"}, {"measurement": "GI50", "setting": "SN12C renal", "value": "> 100", "unit": "µM"}, {"measurement": "TGI", "setting": "SN12C renal", "value": "> 100", "unit": "µM"}]}
